Entries after “also recorded” stand apart in the source; their conditions may differ.
How the values were obtained:
Oxtrl = molecular target: T1, Oxtrl (Danio rerio, UniProt E4W698); assay: Inositol phosphate accumulation assay, antagonism of 1 μM zVP at Oxtrl; type: cell-based, zebrafish; settings: stimulated with zVP
T1 construct: host or cells: HEK293
T1 sequence (E4W698 1-382): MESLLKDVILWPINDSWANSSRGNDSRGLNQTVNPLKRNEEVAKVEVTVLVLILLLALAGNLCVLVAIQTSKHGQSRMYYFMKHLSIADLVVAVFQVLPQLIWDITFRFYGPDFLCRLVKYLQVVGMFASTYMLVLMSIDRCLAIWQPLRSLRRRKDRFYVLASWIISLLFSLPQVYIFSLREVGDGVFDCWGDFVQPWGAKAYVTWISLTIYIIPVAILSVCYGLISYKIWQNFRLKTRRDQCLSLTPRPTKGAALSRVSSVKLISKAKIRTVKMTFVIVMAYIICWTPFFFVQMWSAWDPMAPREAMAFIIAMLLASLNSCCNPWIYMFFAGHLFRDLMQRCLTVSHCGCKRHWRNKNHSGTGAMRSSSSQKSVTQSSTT
Procedure: (§1) The receptor constructs were ordered from GeneScript and subcloned into a pcDNA3.1/CT-GFP-TOPO vector. The coding sequences of the GenBank entries NM_001199370.1 (oxtr), NM_001199369.1 (oxtrl), NM_001301114.1 (avpr1aa), and NM_001297676.1 (avpr1ab) were used for synthesis. The stop codons were removed, and an additional […] was added to facilitate hybrid protein expression with GFP in frame from the vector. The GCCACC Kozak sequence was inserted before the start codons. After transformation of the plasmid constructs into TOP10 competent cells (Thermo Fisher Scientific), the Maxiprep (Thermo Fisher Scientific) method was used to amplify the plasmids for transfection.
(§2) The Inositol phosphate accumulation assay was performed according to previous descriptions to measure the potency of different ligands for zebrafish different oxytocin related receptors. Each receptor construct was transfected into HEK293 cells using Lipofectamine 2000 (Thermo Fisher Scientific). Myo2-^3H-inositol (PerkinElmer) at 3 μCi/mL was added the day after transfection. […] Samples were mixed with OptiPhase HiSafe (PerkinElmer Waltham, MA, USA) and ^3H radioactivity was measured with a Tri-Carb 2910TR liquid scintillation counter (PerkinElmer Waltham, MA, USA). […]

Avpr1aa = molecular target: T2, Avpr1aa (Danio rerio, UniProt A0A8M1P1H3); assay: Inositol phosphate accumulation assay, antagonism of 1 μM zVP at Avpr1aa; type: cell-based, zebrafish; settings: stimulated with agonist; antagonist up to 1 μM
T2 sequence (A0A8M1P1H3 1-379): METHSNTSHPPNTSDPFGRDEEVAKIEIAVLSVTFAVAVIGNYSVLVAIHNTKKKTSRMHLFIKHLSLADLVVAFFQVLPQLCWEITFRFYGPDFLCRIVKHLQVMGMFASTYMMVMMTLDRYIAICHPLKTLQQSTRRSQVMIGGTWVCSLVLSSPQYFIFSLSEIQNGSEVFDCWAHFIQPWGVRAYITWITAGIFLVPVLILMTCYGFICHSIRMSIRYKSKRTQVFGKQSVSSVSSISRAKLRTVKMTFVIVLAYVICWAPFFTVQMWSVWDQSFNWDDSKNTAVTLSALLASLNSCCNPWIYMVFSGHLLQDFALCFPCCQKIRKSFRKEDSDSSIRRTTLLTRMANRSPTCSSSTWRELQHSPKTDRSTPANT
Procedure: as §1, §2

Oxtr = molecular target: T3, Oxtr (Danio rerio, UniProt E4W699); assay: Inositol phosphate accumulation assay, antagonism of 1 μM zVP at Oxtr; type: cell-based, zebrafish; settings: stimulated with zVP
T3 construct: host or cells: HEK293
T3 sequence (E4W699 1-388): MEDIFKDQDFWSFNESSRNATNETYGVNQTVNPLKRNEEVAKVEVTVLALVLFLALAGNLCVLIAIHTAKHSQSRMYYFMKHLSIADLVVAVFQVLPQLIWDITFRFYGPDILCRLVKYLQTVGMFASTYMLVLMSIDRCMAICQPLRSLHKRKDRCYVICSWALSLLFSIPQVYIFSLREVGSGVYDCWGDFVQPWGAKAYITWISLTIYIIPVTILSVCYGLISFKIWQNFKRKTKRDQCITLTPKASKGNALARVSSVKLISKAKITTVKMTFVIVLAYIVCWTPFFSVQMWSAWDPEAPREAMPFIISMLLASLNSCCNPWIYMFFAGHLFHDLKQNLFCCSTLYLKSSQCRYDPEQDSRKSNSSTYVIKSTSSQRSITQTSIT
Procedure: as §1, §2

rodents = settings: cited from earlier work
Procedure: Intraperitoneal injections were conducted using a 1 mL U-100 BD MicroFine™ Insulin Syringe (Becton Dickinson France S.A.S., France). Post injection, animals were placed into their holding tanks for one hour to recover. […] Following this, focal fish were individually placed in the middle of the test tank and left ...

[1] = cited from earlier work

## Cc1ccccc1N1CCN(S(=O)(=O)C[C@]23CC[C@H](C[C@@H]2NC(=O)[C@@H](N)CCS(C)(=O)=O)C3(C)C)CC1 [L-368,899]
Oxtrl
  Antagonism at Oxtrl, in words: able to block zVP activation; also recorded: specifically inhibited; also recorded: potently antagonised
Avpr1aa
  Antagonism at Avpr1aa, in words: did not block the response; also recorded: without reducing the effect of the peptide agonist
Oxtr
  Antagonism at Oxtr, in words: able to block zVP activation; also recorded: specifically inhibited; also recorded: potently antagonised
rodents
  Behavioural effects one hour after treatment: robust behavioural effects
[1]
  half-life: about 2 hours

From PMC7096398, “Oxytocin Receptors Regulate Social Preference in Zebrafish” (Scientific Reports, 2020)
